Measured values reported in patent publication US20220016079A1, “COMBINATION TREATMENT OF HIV INFECTIONS” (priority 2018, published 2022).

Columns and labels:
[1] = test system: latent HIV in JLat 10.6-GFP, 2D10 and 5A8 cells; experiment: HIV reactivation using latent reporter cell lines (GFP expression by flow cytometry); format: cell-based, human
Source text: The experiment analyzed the ability of DEB10-1143 at reactivating latent HIV using three well-characterized latent T cell lines—JLat 10.6-GFP, 2D10 and 5A8 (Jordan A, Bisgrove D, Verdin E (2003) EMBO J 22(8): 1868-1877. doi: 10.1093/emboj/cdg188. PMID: 12682019; Sakane N, Kwon HS, Pagans S, Kaehlcke K, Mizusawa Y, Kamada M, et al. (2011) PLoS Pathog 7(8): e1002184. PMID: 21876670; Pearson R, Kim Y K, Hokello J, Lassen K, Friedman J, Tyagi M, et al. (2008) J Virol 82(24): 12291-12303. PMID: 18829756). These cell lines contain part of the HIV genome and the GFP reporter gene and are unable to produce infective HIV particles. Drug titration and kinetic studies were conducted. Debio-1143 was tested alone or in combination with the current antiretroviral therapy (ART), consisting of 20 μM tenofovir disoproxil fumarate [TDF], 10 μM emtricitabine [FTC] and 1 μM raltegravir [RAL]. ART and DEB10-1143 were added simultaneously to cells.
Method: Cells (100,000 cells/100 μL) were treated in triplicate for 0 and 72 h with increasing concentrations of DEB10-1143 (0 to 20.5 μM) used alone or in combination with ART (see above). ART and DEB10-1143 were added simultaneously to cells. Cells were analyzed for GFP expression by flow cytometry at the indicated time points counting all cells per replicate, and reported as % GFP+cells.

[2] = test system: latent HIV-1 in rCD4+ cells co-cultured with CD8+ cells; experiment: HIV-1 reactivation in ex vivo co-cultures of rCD4+ and CD8+ cells from an ART-treated HIV patient (HIV RNA in supernatant); format: cell-based, human
Method: The efficacy of IAPa, ICI or IAPa/ICI combinations in reversing HIV-1 latency was tested in HIV-1 infected rCD4+ cells co-cultured for 48 h with CD8+ cells from the same donor.
Method: Blood from one HIV-1-infected patient under ART was collected (500 mL) and CD4+ and CD8+ cells isolated using beads coated with specific antibodies following manufacturer's instruction (MojoSort™ Human Cell Isolation Kits from Biolegend). The CD4+ T cells were re-infected with HIV-1 (JR-CSF) (1 μg of p24), incubated for 3 days to allow establishment of infection, and treated with ART ([…]) for 7 days to ensure presence of enough latent HIV CD4+ cells (rCD4+) in the culture. Upon ART removal, rCD4 were then isolated following manufacturer's instruction (EasySep™ Human Resting CD4+ T Cell Isolation Kit). The isolated rCD4 were mixed with autologous (from the same patient) uninfected CD8+ T cells at a 1:1 ratio (100,000 cells) and incubated in duplicate for 48 h with different IAPa ([…]) or ICI (10 μg/ml) in monotherapy, or the IAPa/ICI combinations. Amounts of virions released from cells were quantified at the indicated time points by quantifying HIV RNA levels (HIV RNA copies/mL) in supernatant of cell culture using one-step reverse transcriptase quantitative real-time PCR (ABI custom TaqMan Assays-by-Design) according to the manufacturer's instructions. Primers were 5-[…]-3 and 5-[…]-3, and MGB probe 5-FAM-[…]-Q-3, where FAM is 6-carboxyfluorescein.

[3] = test system: HIV-1 (JR-CSF); experiment: Efficacy study in HIV-1 infected humanized BLT mice: HIV-1 loads in blood (qPCR); format: in vivo; settings: 4 weeks of treatment starting 12 weeks after infection; n=8 per group
Source text: Methods: Humanized BLT mice were generated by implanting human fetal liver and thymus tissues under the kidney capsule of an immunodeficient NOD scid gamma (NSG=NOD.Cg-Prkdc^scidII12rg^tm1Wjl/SzJ) mouse, followed by an administration of autologous human fetal liver CD34+ cells (human hematopoietic stem cells). In BLT mice, T cell education occured in the human thymic tissue, resulting in complete systemic reconstitution of all major human hematopoietic lineages including T, B, monocyte/macrophage, dendritic, and natural killer cells. The extensive systemic and genital mucosal reconstitution with human lymphoid cells rendered female humanized BLT mice susceptible to both vaginal and rectal HIV infection. […]
R5 HIV (JR-CSF) was produced by 293T transfection and quantified by p24 ELISA. Humanized mice were infected with JR-CSF (200 ng of p24) and viral replication quantified weekly by qPCR for up to 16 weeks.
Methods: Thirty-two BLT mice were infected with HIV-1. 12 weeks later mice were split in 4 groups (n=8), treated with various regimen and analyzed for 6 weeks. […] Body weight, HIV-1 loads and PD-1 expression on CD8+ T cells were analyzed once weekly. […] The remaining mice (4×5=20) were sacrificed 2 weeks after treatment completion and viral RNA levels in organ reservoirs (spleen, thymic organoid, lung, spleen, lymph nodes and liver) were quantified by qPCR.

Compound: CN[C@@H](C)C(=O)N[C@H]1CN(C(=O)CC(C)C)CC[C@H]2CC[C@@H](C(=O)NC(c3ccccc3)c3ccccc3)N2C1=O [Debio 1143, (5S,8S,10aR)-N-benzhydryl-5-((S)-2-(methylamino)propanamido)-3-(3-methylbutanoyl)-6-oxodecahydropyrrolo[1,2-a][1,5]diazocine-8-carboxamide]
- degree of HIV reactivation, comparison of cell lines ([1]; 2D10 cells compared to the two other cell lines): shows the best degree of HIV reactivation
- influence of ART on the degree of latency reversal ([1]; in combination with ART (20 μM TDF, 10 μM FTC, 1 μM RAL), added simultaneously): does not influence
- HIV reactivation (% GFP+ cells) ([1]; single agent, 0 to 20.5 μM, 72 h, JLat 10.6-GFP, 2D10 and 5A8 cells): possesses the capacity of activating latent HIV
- latency reversal class (HIV RNA copies/ml in supernatant) ([2]; IAPa 1 μM monotherapy (0.1% DMSO, no ICI), 48 h (Table 3)): 3 (Subsequent classes were defined accordingly in steps of 500 RNA copies/ml)
- latency reversal class (HIV RNA copies/ml in supernatant) ([2]; IAPa 1 μM with Control IgG1, 48 h (Table 3)): 3 (Subsequent classes were defined accordingly in steps of 500 RNA copies/ml)
- latency reversal class (HIV RNA copies/ml in supernatant) ([2]; IAPa 1 μM with Control IgG2, 48 h (Table 3)): 3 (Subsequent classes were defined accordingly in steps of 500 RNA copies/ml)
- HIV titers in blood [3]: increased viral titers
